Where a name gives a salt, the structure may show the parent alone.
SMILES | melting point
CC(C)n1c(/C=C/[C@@H](O)C[C@@H](O)CC(=O)O)c(-c2ccc(F)cc2)c(-c2ccccc2)c1C(=O)Nc1ccc(S(N)(=O)=O)cc1 (as salt: sodium) [Example 5, (3R,5S)-7-[3-(4-Fluoro-phenyl)-1-isopropyl-4-phenyl-5-(4-sulfamoyl-phenylcarbamoyl)-1H-pyrrol-2-yl]-3,5-dihydroxy-hept-6-enoic Acid Sodium Salt] | 255 to 256 °C
CC(C)n1c(CC[C@@H](O)C[C@@H](O)CC(=O)O)c(-c2ccc(F)cc2)c(-c2ccc(F)cc2)c1C(=O)Nc1ccc(S(N)(=O)=O)cc1 (as salt: sodium) [Example 11, (3R,5R)-7-[3,4-Bis-(4-fluoro-phenyl)-1-isopropyl-5-(4-sulfamoyl-phenylcarbamoyl)-1H-pyrrol-2-yl]-3,5-dihydroxy-heptanoic Acid Sodium Salt] | 261 to 263 °C
CC(C)n1c(/C=C/[C@@H](O)C[C@@H](O)CC(=O)O)c(-c2ccc(F)cc2)c(-c2ccc(F)cc2)c1C(=O)Nc1ccc(CC(N)=O)cc1 (as salt: sodium) [Example 14, (3R,5S)-7-[5-(4-Carbamoylmethyl-phenylcarbamoyl)-3,4-bis-(4-fluoro-phenyl)-1-isopropyl-1H-pyrrol-2-yl]-3,5-dihydroxy-hept-6-enoic Acid Sodium Salt] | 220 to 222 °C
CC(C)n1c(CC[C@@H](O)C[C@@H](O)CC(=O)O)c(-c2ccc(F)cc2)c(-c2ccccc2)c1C(=O)NCc1cn2c(n1)CCCC2 (as salt: sodium) [Example 93, (3R,5R)-7-[3-(4-Fluorophenyl)-1-isopropyl-5-[(5,6,7,8-tetrahydro-imidazo[1,2-a]pyridin-2-yl Methyl)carbamoyl]-4-phenyl-1H-pyrrol-2-yl]-3,5-dihydroxyheptanoic Acid Sodium Salt] | 239 to 241 °C (dec.)
CC(C)n1c(/C=C/[C@@H](O)C[C@@H](O)CC(=O)[O-])c(-c2ccc(F)cc2)c(-c2ccccc2)c1C(=O)Nc1ccccc1.[Na+] [Example 2, (3R,5S)-7-[3-(4-Fluoro-phenyl)-1-isopropyl-4-phenyl-5-phenylcarbamoyl-1H-pyrrol-2-yl]-3,5-dihydroxy-hept-6-enoic Acid Sodium Salt] | 239 to 241 °C
CC(C)n1c(CCC(O)C[C@@H](O)CC(=O)[O-])c(-c2ccc(F)cc2)c(-c2ccccc2)c1C(=O)Nc1ccccc1.[Na+] (stereo partly drawn) [Example 3, (3R)-7-[3-(4-Fluoro-phenyl)-1-isopropyl-4-phenyl-5-phenylcarbamoyl-1H-pyrrol-2-yl]-3,5-dihydroxy-heptanoic Acid Sodium Salt] | 240 to 242 °C
CC(C)n1c(CC[C@@H](O)C[C@@H](O)CC(=O)[O-])c(-c2ccc(F)cc2)c(-c2ccccc2)c1C(=O)Nc1ccc(S(N)(=O)=O)cc1.[Na+] [Example 4, (3R,5R)-7-[3-(4-Fluoro-phenyl)-1-isopropyl-4-phenyl-5-(4-sulfamoyl-phenylcarbamoyl)-1H-pyrrol-2-yl]-3,5-dihydroxy-heptanoic Acid Sodium Salt] | 265 to 267 °C
COC(=O)C[C@H]1C[C@@H](CCc2c(-c3ccc(F)cc3)c(-c3ccc(F)cc3)cn2C(C)C)OC(C)(C)O1 [Example 24, (4R,6R)-(6-{2-[3,4-Bis-(4-fluoro-phenyl)-1-isopropyl-1H-pyrrol-2-yl]-ethyl}-2,2-dimethyl-[1,3]dioxan-4-yl)-acetic Acid Methyl Ester] | 55 to 57 °C
CC(C)n1c(/C=C/[C@@H](O)C[C@@H](O)CC(=O)[O-])c(-c2ccc(F)cc2)c(-c2ccc(F)cc2)c1C(=O)Nc1cccc(C(=O)N(C)C)c1.[Na+] [Example 68, trans-(3R,5S)-7-[5-(3-dimethylcarbamoyl-phenylcarbamoyl)-3,4-bis-(4-fluoro-phenyl)-1-isopropyl-1H-pyrrol-yl]-3,5-dihydroxy-hept-6-enoate Sodium Salt] | 210 to 214 °C
CC(C)n1c(CC[C@@H](O)C[C@@H](O)CC(=O)[O-])c(-c2ccc(F)cc2)c(-c2ccc(F)cc2)c1C(=O)NCc1cccc(S(=O)(=O)N(C)C)c1.[Na+] [Example 71, (3R,5R)-7-[5-(3-dimethylsulfamoyl-benzylcarbamoyl)-3,4-bis-(4-fluoro-phenyl)-1-isopropyl-1H-pyrrol-2-yl]-3,5-dihydroxy-heptanoate Sodium Salt] | 172 to 175 °C
Cc1cc(CNC(=O)c2c(-c3ccccc3)c(-c3ccc(F)cc3)c(/C=C/[C@@H](O)C[C@@H](O)CC(=O)[O-])n2C(C)C)no1.[Na+] [Example 79, trans-(3R,5 S)-7-{3-(4-fluoro-phenyl)-1-isopropyl-5-[(5-methyl-isoxazole-3-yl Methyl)-carbamoyl]-4-phenyl-1H-pyrrol-2-yl}-3,5-dihydroxy-hept-6-enoate Sodium Salt] | 200 to 203 °C
CC(C)n1c(CC[C@@H](O)C[C@@H](O)CC(=O)[O-])c(-c2ccc(F)cc2)c(-c2ccc(F)cc2)c1C(=O)Nc1ccc(C(=O)N(C)C)cc1.[Na+] [Example 85, (3R,5R)-7-[5-(4-dimethylcarbamoyl-phenylcarbamoyl)-3,4-bis-(4-fluoro-phenyl)-1-isopropyl-1H-pyrrol-yl]-3,5-dihydroxy-heptanoate Sodium Salt] | 220 to 223 °C
CC(C)n1c(CC[C@@H](O)C[C@@H](O)CC(=O)[O-])c(-c2ccc(F)cc2)c(-c2ccccc2)c1C(=O)NCCc1ccccc1.[Na+] [Example 91, (3R,5R)-7-[3-(4-Fluorophenyl)-1-isopropyl-5-(phenethylcarbamoyl)-4-phenyl-1H-pyrrol-2-yl]-3,5-dihydroxyheptanoic Acid Sodium Salt] | 197 to 200 °C
CC(C)n1c(C=C[C@H](O)C[C@@H](O)CC(=O)[O-])c(-c2ccc(F)cc2)c(-c2ccc(F)cc2)c1C(=O)Nc1ccc(CS(C)(=O)=O)cc1.[Na+] [Example 106, (3R,5R)-7-[3,4-Bis-(4-fluoro-phenyl)-1-isopropyl-5-(4-methanesulfonylmethyl-phenyl-carbamoyl)-1H-pyrrol-2-yl]-3,5-dihydroxy-hept-6-enoic Acid, Sodium Salt] | 256 °C (dec.)
CC(C)n1c(CC[C@@H](O)C[C@@H](O)CC(=O)[O-])c(-c2ccc(F)cc2)c(-c2ccccc2)c1C(=O)Nc1cccc(C(=O)N(C)C)c1.[Na+] [Example 108, (3R,5R)-7-[5-(3-Dimethylcarbamoyl-phenylcarbamoyl)-3-(4-fluoro-phenyl)-1-isopropyl-4-phenyl-1H-pyrrol-2-yl]-3,5-dihydroxy-heptanoic Acid, Sodium Salt] | 156 to 205 °C
CC(N)=CC(=O)CNC(=O)c1c(-c2ccccc2)c(-c2ccc(F)cc2)c(CC[C@@H](O)C[C@@H](O)CC(=O)[O-])n1C(C)C.[Na+] [Example 113, (3R,5R)-7-[5-(4-Amino-2-oxo-pent-3-enylcarbamoyl)-3-(4-fluoro-phenyl)-1-isopropyl-4-phenyl-1H-pyrrol-2-yl]-3,5-dihydroxy-heptanoic Acid, Sodium Salt] | 189 to 193 °C

Results, then the compound that gave them:

melting point | SMILES
240 to 242 °C | CC(C)n1c(CCC(O)C[C@@H](O)CC(=O)O)c(-c2ccc(F)cc2)c(-c2ccccc2)c1C(=O)Nc1ccc(F)cc1 (stereo partly drawn) (as salt: sodium) [Example 8, (3R)-7-[3-(4-Fluoro-phenyl)-5-(4-fluoro-phenylcarbamoyl)-1-isopropyl-4-phenyl-1H-pyrrol-2-yl]-3,5-dihydroxy-heptanoic Acid Sodium Salt]
218 to 220 °C | CC(C)n1c(CC[C@@H](O)C[C@@H](O)CC(=O)O)c(-c2ccc(F)cc2)c(-c2ccccc2)c1C(=O)NCc1ccc(F)cc1 (as salt: sodium) [Example 9, (3R,5R)-7-[5-(4-Fluoro-benzylcarbamoyl)-3-(4-fluoro-phenyl)-1-isopropyl-4-phenyl-1H-pyrrol-2-yl]-3,5-dihydroxy-heptanoic Acid Sodium Salt]
221 to 223 °C | CC(C)n1c(/C=C/[C@@H](O)C[C@@H](O)CC(=O)O)c(-c2ccc(F)cc2)c(-c2ccccc2)c1C(=O)NCc1ccc(F)cc1 (as salt: sodium) [Example 10, (3R,5S)-7-[5-(4-Fluoro-benzylcarbamoyl)-3-(4-fluoro-phenyl)-1-isopropyl-4-phenyl-1H-pyrrol-2-yl]-3,5-dihydroxy-hept-6-enoic Acid Sodium Salt]
248 to 250 °C | CC(C)n1c(CC[C@@H](O)C[C@@H](O)CC(=O)O)c(-c2ccc(F)cc2)c(-c2ccc(F)cc2)c1C(=O)Nc1ccc(CC(N)=O)cc1 (as salt: sodium) [Example 13]
234 to 236 °C (dec.) | CC(C)n1c(CC[C@@H](O)C[C@@H](O)CC(=O)O)c(-c2ccc(F)cc2)c(-c2ccccc2)c1C(=O)NCc1nc2ccccc2[nH]1 (as salt: sodium) [Example 92]
213 to 215 °C (dec.) | Cc1c[nH]c(CNC(=O)c2c(-c3ccccc3)c(-c3ccc(F)cc3)c(CC[C@@H](O)C[C@@H](O)CC(=O)O)n2C(C)C)n1 (as salt: sodium) [Example 95]
184 to 188 °C | Cc1cnc(CNC(=O)c2c(-c3ccccc3)c(-c3ccc(F)cc3)c(CC[C@@H](O)C[C@@H](O)CC(=O)O)n2C(C)C)cn1 (as salt: sodium) [Example 97, (3R,5R)-7-[3-(4-Fluorophenyl)-1-isopropyl-5-[(5-methylpyrazin-2-ylmethyl)carbamoyl]-4-phenyl-1H-pyrrol-2-yl]-3,5-dihydroxyheptanoic Acid Sodium Salt]
200 to 205 °C | CC(C)n1c(CC[C@@H](O)C[C@@H](O)CC(=O)[O-])c(-c2ccc(F)cc2)c(-c2ccc(F)cc2)c1C(=O)NCc1ccccn1.[Na+] [Example 69, (3R,5R)-7-{3,4-bis-(4-fluoro-phenyl)-1-isopropyl-5-[(pyridin-2-ylmethyl)-carbamoyl]-1H-pyrrol-2-yl}-3,5-dihydroxy-heptanoate Sodium Salt]
207 to 209 °C | COc1cccc(CNC(=O)c2c(-c3ccc(F)cc3)c(-c3ccc(F)cc3)c(CC[C@@H](O)C[C@@H](O)CC(=O)[O-])n2C(C)C)c1.[Na+] [Example 110, (3R,5R)-7-[3,4-Bis-(4-fluoro-phenyl)-1-isopropyl-5-(3-methoxy-benzylcarbamoyl)-1H-pyrrol-2-yl]-3,5-dihydroxy-heptanoic Acid, Sodium Salt]
